Experimental findings from US20250197406A1, “INDAZOLES AS HEMATOPOIETIC PROGENITOR KINASE 1 (HPK1) INHIBITORS AND METHODS FOR USING SAME” (1ST Biotherapeutics, Inc., priority 2022, published 2025) are described below.

A value given as a limit tells only on which side of the number the result lay.

Chain of recombinant human HPK1 (Q92918 whole entry): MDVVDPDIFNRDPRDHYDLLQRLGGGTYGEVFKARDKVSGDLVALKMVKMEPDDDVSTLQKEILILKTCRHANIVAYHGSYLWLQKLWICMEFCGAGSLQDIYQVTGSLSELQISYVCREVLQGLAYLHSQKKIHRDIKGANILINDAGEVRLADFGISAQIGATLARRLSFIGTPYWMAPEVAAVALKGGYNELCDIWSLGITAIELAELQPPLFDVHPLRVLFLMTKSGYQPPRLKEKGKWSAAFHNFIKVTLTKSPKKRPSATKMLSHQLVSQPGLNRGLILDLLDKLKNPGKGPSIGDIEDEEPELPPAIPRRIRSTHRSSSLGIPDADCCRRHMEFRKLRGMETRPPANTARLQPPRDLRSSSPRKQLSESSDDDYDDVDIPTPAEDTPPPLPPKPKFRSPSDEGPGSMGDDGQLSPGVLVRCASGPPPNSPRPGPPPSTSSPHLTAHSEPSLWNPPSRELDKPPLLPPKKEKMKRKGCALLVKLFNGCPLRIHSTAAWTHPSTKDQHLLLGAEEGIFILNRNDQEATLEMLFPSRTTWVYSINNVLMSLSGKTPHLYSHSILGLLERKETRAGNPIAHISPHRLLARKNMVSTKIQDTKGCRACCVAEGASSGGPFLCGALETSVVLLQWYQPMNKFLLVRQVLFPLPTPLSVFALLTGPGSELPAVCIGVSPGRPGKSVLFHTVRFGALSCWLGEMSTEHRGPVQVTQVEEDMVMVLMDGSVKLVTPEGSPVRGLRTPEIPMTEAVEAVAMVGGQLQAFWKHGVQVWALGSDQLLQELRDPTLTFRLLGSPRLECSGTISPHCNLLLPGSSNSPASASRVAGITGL

The target in this assay is recombinant human HPK1 (Homo sapiens (Human), UniProt Q92918). Description: HPK1 kinase assay (Promega ADP-Glo kinase assay). The format is biochemical. To be noted: In vitro activity against HPK1, 5 ng HPK1, MBP substrate, ATP 25 μM, 30° C. 40 minutes. As for the experimental part:
HPK1 kinase activity was measured by Promega's ADP-Glo™ kinase assay. In this assay, 5 ng of recombinant human HPK1 (signalchem) is incubated with 5 μL of compounds (0.5% DMSO), 5 μL of MBP (0.5 μg/μl) and 5 μL of ATP (25 μM) in buffer (40 mM Tris, 7.5; 20 mM MgCl2; 0.1 mg/ml BSA; 50 μM DTT.). The assay was started by incubating the reaction mixture in a 96-well plate at 30° C. for 40 minutes. After the incubation, 25 μL ADP-Glo reagent was added and the reaction was incubated at room temperature for 40-min to stop the reaction and degrade residual ATP. The ADP product was then converted to ATP by adding 50 μL per well of detection reagent. Luminescence was detected after 30-min room temperature incubation with the Molecular device I3X plate reader. The IC50 values were calculated from a series of percent inhibition values determined at a range of inhibitor concentration using software routines as implemented in the GraphPad Prism 7 software and SigmaPlot13.0.
For the compound `Cc1c(F)c(C(C)N)c2[nH]ncc2c1-c1cn2cc(NC(=O)[C@@H]3C[C@@H]3F)nc2cn1` (stereo partly drawn) [Example 25, (1S,2S)-N-(6-(7-(1-aminoethyl)-6-fluoro-5-methyl-1H-indazol-4-yl)imidazo[1,2-a]pyrazin-2-yl)-2-fluorocyclopropane-1-carboxamide], the IC50 lay in the range of 0.101 to 0.5 µM.
The same measure for `CCN(CC)C(=O)[C@H]1C[C@H]1C(=O)Nc1cn2cc(-c3c(Cl)c(F)c(NC(C)C)c4[nH]ncc34)ncc2n1` [Example 26, (1R,2S)-N1-(6-(5-chloro-6-fluoro-7-(isopropylamino)-1H-indazol-4-yl)imidazo[1,2-a]pyrazin-2-yl)-N2,N2-diethylcyclopropane-1,2-dicarboxamide]: less than 0.1 µM.
The same measure for `CN(C)c1c(F)c(C(F)(F)F)c(-c2cn3cc(NC(=O)[C@H]4C[C@H]4F)nc3cn2)c2cn[nH]c12` [Example 27, (1R,2R)-N-(6-(7-(dimethylamino)-6-fluoro-5-(trifluoromethyl)-1H-indazol-4-yl)imidazo[1,2-a]pyrazin-2-yl)-2-fluorocyclopropane-1-carboxamide]: less than 0.1 µM; for `CC(C)Nc1c(F)c(C(F)F)c(-c2cn3cc(NC(=O)[C@@H]4C[C@@H]4F)nc3cn2)c2cn[nH]c12` [Example 28, (1S,2S)-N-(6-(5-(difluoromethyl)-6-fluoro-7-(isopropylamino)-1H-indazol-4-yl)imidazo[1,2-a]pyrazin-2-yl)-2-fluorocyclopropane-1-carboxamide]: less than 0.1 µM.
Then `CCNC(=O)[C@H]1C[C@H]1C(=O)Nc1cn2cc(-c3c(Cl)c(F)c(NC(C)C)c4[nH]ncc34)ncc2n1` [Example 29, (1R,2S)-N1-(6-(5-chloro-6-fluoro-7-(isopropylamino)-1H-indazol-4-yl)imidazo[1,2-a]pyrazin-2-yl)-N2-ethylcyclopropane-1,2-dicarboxamide], with less than 0.1 µM; and `CN(C)c1c(F)c(C(F)(F)F)c(-c2cn3cc(NC(=O)[C@@H]4C[C@H]4F)nc3cn2)c2cn[nH]c12` [Example 30, (1S,2R)-N-(6-(7-(dimethylamino)-6-fluoro-5-(trifluoromethyl)-1H-indazol-4-yl)imidazo[1,2-a]pyrazin-2-yl)-2-fluorocyclopropane-1-carboxamide], with less than 0.1 µM; and `CN(C)c1c(F)c(C(F)(F)F)c(-c2cn3cc(NC(=O)[C@H]4C[C@@H]4F)nc3cn2)c2cn[nH]c12` [Example 31, (1R,2S)-N-(6-(7-(dimethylamino)-6-fluoro-5-(trifluoromethyl)-1H-indazol-4-yl)imidazo[1,2-a]pyrazin-2-yl)-2-fluorocyclopropane-1-carboxamide], with less than 0.1 µM.
Consider `COC(=O)[C@H]1C[C@H]1C(=O)Nc1cn2cc(-c3c(Cl)c(F)c(NC(C)C)c4[nH]ncc34)ncc2n1` [Example 32, methyl (1S,2R)-2-((6-(5-chloro-6-fluoro-7-(isopropylamino)-1H-indazol-4-yl)imidazo[1,2-a]pyrazin-2-yl)carbamoyl)cyclopropane-1-carboxylate], for which the IC50 was less than 0.1 µM.
Then `Cc1c(F)c(NC(C)C)c2[nH]ncc2c1-c1cn2cc(NC(=O)[C@H]3C[C@H]3F)nc2cn1` [Example 33], with less than 0.1 µM.
The same measure for `Cc1c(F)c(NC(C)C)c2[nH]ncc2c1-c1cn2cc(NC(=O)[C@@H]3C[C@H]3F)nc2cn1` [Example 34, (1S,2R)-2-fluoro-N-(6-(6-fluoro-7-(isopropylamino)-5-methyl-1H-indazol-4-yl)imidazo[1,2-a]pyrazin-2-yl)cyclopropane-1-carboxamide]: less than 0.1 µM; for `Cc1c(F)c(NC(C)C)c2[nH]ncc2c1-c1cn2cc(NC(=O)[C@H]3C[C@@H]3F)nc2cn1` [Example 35, (1R,2S)-2-fluoro-N-(6-(6-fluoro-7-(isopropylamino)-5-methyl-1H-indazol-4-yl)imidazo[1,2-a]pyrazin-2-yl)cyclopropane-1-carboxamide]: less than 0.1 µM.
The same measure for `O=C(Nc1cn2cc(-c3c(C(F)(F)F)c(F)c(C(O)C4CC4)c4[nH]ncc34)ncc2n1)[C@@H]1C[C@@H]1F` (stereo partly drawn) [Example 36, (1S,2S)-N-(6-(7-(cyclopropyl(hydroxy)methyl)-6-fluoro-5-(trifluoromethyl)-1H-indazol-4-yl)imidazo[1,2-a]pyrazin-2-yl)-2-fluorocyclopropane-1-carboxamide]: less than 0.1 µM.
With `CC(C)Nc1c(F)c(Cl)c(-c2cn3cc(NC(=O)[C@@H]4C[C@@H]4CCl)nc3cn2)c2cn[nH]c12` [Example 37, (1R,2S)-N-(6-(5-chloro-6-fluoro-7-(isopropylamino)-1H-indazol-4-yl)imidazo[1,2-a]pyrazin-2-yl)-2-(chloromethyl)cyclopropane-1-carboxamide], the IC50 was less than 0.1 µM.
The same measure for `CC(C)Nc1c(F)c(Cl)c(-c2cn3cc(NC(=O)[C@@H]4C[C@@H]4CO)nc3cn2)c2cn[nH]c12` [Example 38, (IR,2S)-N-(6-(5-chloro-6-fluoro-7-(isopropylamino)-1H-indazol-4-yl)imidazo[1,2-a]pyrazin-2-yl)-2-(hydroxymethyl)cyclopropane-1-carboxamide]: less than 0.1 µM; for `CC(C)Nc1c(F)c(Cl)c(-c2cn3cc(NC(=O)[C@@H]4C[C@@H]4C(N)=O)nc3cn2)c2cn[nH]c12` [Example 39, (1R,2S)-N1-(6-(5-chloro-6-fluoro-7-(isopropylamino)-1H-indazol-4-yl)imidazo[1,2-a]pyrazin-2-yl)cyclopropane-1,2-dicarboxamide]: less than 0.1 µM.
Then `CC(C)Nc1c(F)c(CO)c(-c2cn3cc(NC(=O)[C@@H]4C[C@@H]4F)nc3cn2)c2cn[nH]c12` [Example 40, (1S,2S)-2-fluoro-N-(6-(6-fluoro-5-(hydroxymethyl)-7-(isopropylamino)-1H-indazol-4-yl)imidazo[1,2-a]pyrazin-2-yl)cyclopropane-1-carboxamide], with 0.101 to 0.5 µM; and `NC(c1c(F)c(C(F)F)c(-c2cn3cc(NC(=O)[C@@H]4C[C@@H]4F)nc3cn2)c2cn[nH]c12)C1CC1` (stereo partly drawn) [Example 41, (1S,2S)-N-(6-(7-(amino(cyclopropyl)methyl)-5-(difluoromethyl)-6-fluoro-1H-indazol-4-yl)imidazo[1,2-a]pyrazin-2-yl)-2-fluorocyclopropane-1-carboxamide], with less than 0.1 µM; and `CC(=O)NC(c1c(F)c(C)c(-c2cn3cc(NC(=O)[C@@H]4C[C@@H]4F)nc3cn2)c2cn[nH]c12)C1CC1` (stereo partly drawn) [Example 42, (1S,2S)-N-(6-(7-(acetamido(cyclopropyl)methyl)-6-fluoro-5-methyl-1H-indazol-4-yl)imidazo[1,2-a]pyrazin-2-yl)-2-fluorocyclopropane-1-carboxamide], with less than 0.1 µM.
For `NC(c1c(F)c(C(F)(F)F)c(-c2cn3cc(NC(=O)[C@@H]4C[C@@H]4F)nc3cn2)c2cn[nH]c12)C1CC1` (stereo partly drawn) [Example 44, (1S,2S)-N-(6-(7-(amino(cyclopropyl)methyl)-6-fluoro-5-(trifluoromethyl)-1H-indazol-4-yl)imidazo[1,2-a]pyrazin-2-yl)-2-fluorocyclopropane-1-carboxamide], the IC50 was less than 0.1 µM.
For the compound `CC(N)c1c(F)c(C(F)(F)F)c(-c2cn3cc(NC(=O)[C@@H]4C[C@@H]4F)nc3cn2)c2cn[nH]c12` (stereo partly drawn) [Example 45, (1S,2S)-N-(6-(7-(1-aminoethyl)-6-fluoro-5-(trifluoromethyl)-1H-indazol-4-yl)imidazo[1,2-a]pyrazin-2-yl)-2-fluorocyclopropane-1-carboxamide], the IC50 was 0.501 to 1 µM.
With `CC(C)Nc1c(F)c(Cl)c(-c2cn3cc(NC(=O)C4CC4)nc3cn2)c2cn[nH]c12` [Example 46, N-(6-(5-chloro-6-fluoro-7-(isopropylamino)-1H-indazol-4-yl)imidazo[1,2-a]pyrazin-2-yl)cyclopropanecarboxamide], the IC50 was less than 0.1 µM.
On to `COC(=O)NC1(C(=O)Nc2cn3cc(-c4c(Cl)c(F)c(NC(C)C)c5[nH]ncc45)ncc3n2)CC1` [Example 47, methyl (1-((6-(5-chloro-6-fluoro-7-(isopropylamino)-1H-indazol-4-yl)imidazo[1,2-a]pyrazin-2-yl)carbamoyl)cyclopropyl)carbamate], for which the IC50 was 0.501 to 1 µM.
Then `O=C(Nc1cn2cc(-c3c(C(F)F)c(F)c(C(C4CC4)N4C(=O)c5ccccc5C4=O)c4[nH]ncc34)ncc2n1)[C@@H]1C[C@@H]1F` (stereo partly drawn) [Example 48, (1S,2S)-N-(6-(7-(cyclopropyl(1,3-dioxoisoindolin-2-yl)methyl)-5-(difluoromethyl)-6-fluoro-1H-indazol-4-yl)imidazo[1,2-a]pyrazin-2-yl)-2-fluorocyclopropane-1-carboxamide], with less than 0.1 µM.
Then `CC(O)c1c(F)c(C(F)F)c(-c2cn3cc(NC(=O)[C@@H]4C[C@@H]4F)nc3cn2)c2cn[nH]c12` (stereo partly drawn) [Example 49, (1S,2S)-N-(6-(5-(difluoromethyl)-6-fluoro-7-(1-hydroxyethyl)-1H-indazol-4-yl)imidazo[1,2-a]pyrazin-2-yl)-2-fluorocyclopropane-1-carboxamide], with less than 0.1 µM; and `CC(c1c(F)c(C(F)F)c(-c2cn3cc(NC(=O)[C@@H]4C[C@@H]4F)nc3cn2)c2cn[nH]c12)N1C(=O)c2ccccc2C1=O` (stereo partly drawn) [Example 50, (1S,2S)-N-(6-(5-(difluoromethyl)-7-(1-(1,3-dioxoisoindolin-2-yl)ethyl)-6-fluoro-1H-indazol-4-yl)imidazo[1,2-a]pyrazin-2-yl)-2-fluorocyclopropane-1-carboxamide], with less than 0.1 µM.
